GI50 data for 20 compounds are collected here from patent publication EP4782450A1, “NOVEL SKELETAL DERIVATIVE EFFECTIVE FOR HER2 MUTATION, AND PHARMACEUTICAL COMPOSITION COMPRISING SAME” (Hanmi Pharm. Co., Ltd., priority 2023, dated 2025).

The test system of one assay is Ba/F3 HER2 A775insYVMA. In words: Growth inhibition of Ba/F3 cells engineered to overexpress HER2 A775_G776insYVMA (CellTiter-Glo luminescence). As to conditions: Mus musculus, BaF3, 72 hours, concentrations 1000 to 0.32 nM, read-out: Ba/F3 HER2^YVMA GI50 class. In kind it is cell-based. The protocol:
(§1) Experimental Example: Growth inhibition of Ba/F3 HER2 A775insYVMA and wild-type Ba/F3 cells
(§2) In this Experimental Example, the compounds obtained in Examples 1 to 92 were evaluated for their ability to inhibit growth of cells harboring either the HER2 A775insYVMA mutation or wild-type EGFR. For this purpose, Ba/F3 cells (ATCC, USA) were genetically engineered to overexpress either HER2 A775_G776insYVMA or wild-type EGFR, and the growth of these engineered Ba/F3 cells were monitored in the presence of the compounds described in the Examples to evaluate their effects on growth inhibition.
(§3) Specifically, culture flasks of the engineered Ba/F3 cells suspended in RPMI 1640 medium supplemented with 10% fetal bovine serum (FBS) and 1% penicillin/streptomycin (Gibco BRL, USA) were placed in a cell incubator and incubated at 37°C and 5% CO2 level to allow them to reach a stable logarithmic growth phase. The cells were then harvested by centrifugation to remove the old media and placed into a 96-well plate by dividing them into 100 µL aliquots per well at a dilution of 1×10^5 cells/mL in fresh media. Each of the compounds prepared in the preceding Examples were dissolved in 99.5% (cell culture grade) dimethylsulfoxide (DMSO) to prepare a stock solution of 10 mM concentration, which were serially diluted in the culture medium to final concentrations of 1000, 200, 40, 8, 1.6 and 0.32 nM for HER2 A775insYVMA Ba/F3 cells and concentrations of 10000, 5000, 1000, 200, 40 and 8 nM for wild-type EGFR overexpressing Ba/F3 cells.
(§4) To each aliquot of cells in the 96-well plate, a 50 µL test solution comprising one of the compounds was added to result in each well a 150 µL volume of cells with a compound in a final concentration ranging from 10 µM to 0.32 nM. The Ba/F3 cells treated with the test solution were incubated for 72 hours at 37°C and 5% CO2 level and underwent a 30-minute acclimation by placing the 96-well plate carrying the cells in ambient temperature. Thereafter, to each well was added 50 µL CellTiter-Glo® Luminescent Cell Assay Reagent (CTG, Promega, USA). After allowing 10 minutes to stabilize the signal, luminescence intensity was measured using a microplate reader. The half-maximal growth inhibition concentration (GI50) was calculated from the luminescence readout of the test compounds with the difference between the initial and final cell densities for the well untreated with a compound set at 100% growth. Nonlinear regression analysis based on log[inhibitor] vs. normalized response mode of the Graph Prism software was used for calculating GI50 for each compound, which are summarized in Table 6. The calculated GI50 values are classified in Table 6 into four categories: A for GI50 values less than 100 nM, B for GI50 values more than 100 nM but less than 1,000 nM, C for GI50 values more than 1,000 nM but less than 5,000 nM, and D for GI50 values of more than 5,000 nM.
(In general: ATP-based viability assays read luminescence as a measure of living cells.)

In assay [1] the test system is wild-type EGFR overexpressing Ba/F3 cells. Kind of assay: Growth inhibition of Ba/F3 cells engineered to overexpress wild-type EGFR (CellTiter-Glo luminescence). The format is cell-based. As to conditions: Mus musculus, BaF3, 72 hours, concentrations 10000 to 8 nM, read-out: Ba/F3 EGFR^WT GI50 class. The protocol:
as §1, §2, §3, §4

As for `C=CC(=O)N(C)CCN(C)c1ccc2ncnc(Nc3ccc(Oc4ccn5ncnc5c4)c(C)c3)c2n1` [Example 13, N-(2-((4-((4-([1,2,4]triazolo[1,5-a]pyridin-7-yloxy)-3-methylphenyl)amino)pyrido[3,2-d]pyrimidin-6-yl)(methyl)amino)ethyl)-N-methylacrylamide], the GI50 is 0.1 to 1 µM in the assay on Ba/F3 HER2 A775insYVMA and 1 to 5 µM in assay [1].
The matching figures for `C=CC(=O)N(C)CCN(C)c1ncc2ncnc(Nc3ccc(Oc4ccn5ncnc5c4)c(C)c3)c2n1` [Example 14, N-(2-((8-((4-([1,2,4]triazolo[1,5-a]pyridin-7-yloxy)-3-methylphenyl)amino)pyrimido[5,4-d]pyrimidin-2-yl)(methyl)amino)ethyl)-N-methylacrylamide]: 1 to 5 µM and 1 to 5 µM.
For `C=CC(=O)N(C)CCNc1ccc2ncnc(Nc3ccc(Oc4ccc5c(c4)ncn5C)c(C)c3)c2n1` [Example 15, N-methyl-N-(2-((4-((3-methyl-4-((1-methyl-1H-benzo[d]imidazol-5-yl)oxy)phenyl)amino)pyrido[3,2-d]pyrimidin-6-yl)amino)ethyl)acrylamide] the same measures were less than 0.1 µM and 1 to 5 µM.
The matching figures for `C=CC(=O)N(C)CCCNc1ccc2ncnc(Nc3ccc(Oc4ccc5c(c4)ncn5C)c(C)c3)c2n1` [Example 17, N-methyl-N-(3-((4-((3-methyl-4-((1-methyl-1H-benzo[d]imidazol-5-yl)oxy)phenyl)amino)pyrido[3,2-d]pyrimidin-6-yl)amino)propyl)acrylamide]: less than 0.1 µM and greater than 5 µM.
As to `C=CC(=O)N(C)CCN(C)c1ccc2ncnc(Nc3ccc(Oc4ccc5c(c4)ncn5C)c(C)c3)c2n1` [Example 18, N-methyl-N-(2-(methyl(4-((3-methyl-4-((1-methyl-1H-benzo[d]imidazol-5-yl)oxy)phenyl)amino)pyrido[3,2-d]pyrimidin-6-yl)amino)ethyl)acrylamide], the GI50 with Ba/F3 HER2 A775insYVMA was 0.1 to 1 µM; in assay [1], greater than 5 µM.
For `C=CC(=O)N(C)CCN(C)c1ncc2ncnc(Nc3ccc(Oc4ccc5c(c4)ncn5C)c(C)c3)c2n1` [Example 19, N-methyl-N-(2-(methyl(8-((3-methyl-4-((1-methyl-1H-benzo[d]imidazol-5-yl)oxy)phenyl)amino)pyrimido[5,4-d]pyrimidin-2-yl)amino)ethyl)acrylamide] the same measures were 0.1 to 1 µM and greater than 5 µM.
As for `C=CC(=O)N(C)CCCN(C)c1ccc2ncnc(Nc3ccc(Oc4ccc5c(c4)ncn5C)c(C)c3)c2n1` [Example 20, N-methyl-N-(3-(methyl(4-((3-methyl-4-((1-methyl-1H-benzo[d]imidazol-5-yl)oxy)phenyl)amino)pyrido[3,2-d]pyrimidin-6-yl)amino)propyl)acrylamide], the GI50 in the assay with Ba/F3 HER2 A775insYVMA is 0.1 to 1 µM; in assay [1], greater than 5 µM.
Take `C=CC(=O)N(C)CC(=O)Nc1ccc2ncnc(Nc3ccc(Oc4ccc5c(c4)ncn5C)c(C)c3)c2n1` [Example 21, N-methyl-N-(2-((4-((3-methyl-4-((1-methyl-1H-benzo[d]imidazol-5-yl)oxy)phenyl)amino)pyrido[3,2-d]pyrimidin-6-yl)amino)-2-oxoethyl)acrylamide]: the GI50 with Ba/F3 HER2 A775insYVMA was in the range of 0.1 to 1 µM; in assay [1] it was 1 to 5 µM.
For `C=CC(=O)N(C)C/C=C/c1ccc2ncnc(Nc3ccc(Oc4ccc5c(c4)ncn5C)c(C)c3)c2c1` [Example 22] the same measures were less than 0.1 µM and 1 to 5 µM.
The matching figures for `C=CC(=O)N(C)C/C=C/c1ccc2ncnc(Nc3ccc(Oc4ccc5c(c4)ncn5C)c(C)c3)c2n1` [Example 23, (E)-N-methyl-N-(3-(4-((3-methyl-4-((1-methyl-1H-benzo[d]imidazol-5-yl)oxy)phenyl)amino)pyrido[3,2-d]pyrimidin-6-yl)aryl)acrylamide]: less than 0.1 µM and greater than 5 µM.
For `C=CC(=O)N(C)C/C=C/c1ncc2ncnc(Nc3ccc(Oc4ccc5c(c4)ncn5C)c(C)c3)c2n1` [Example 24, (E)-N-methyl-N-(3-(8-((3-methyl-4-((1-methyl-1H-benzo[d]imidazol-5-yl)oxy)phenyl)amino)pyrimido[5,4-d]pyrimidin-2-yl)allyl)acrylamide] the same measures were less than 0.1 µM and 1 to 5 µM.
Turning to `C=CC(=O)N(C)C/C=C/c1ccc2ncnc(Nc3ccc(Oc4ccc5c(c4)ncn5C)c(Cl)c3)c2n1` [Example 25, (E)-N-(3-(4-((3-chloro-4-((1-methyl-1H-benzo[d]imidazol-5-yl)oxy)phenyl)amino)pyrido[3,2-d]pyrimidin-6-yl)allyl)-N-methylacrylamide], the GI50 is less than 0.1 µM with Ba/F3 HER2 A775insYVMA and 1 to 5 µM in assay [1].
On to `C=CC(=O)N(C)CC/C=C/c1ccc2ncnc(Nc3ccc(Oc4ccc5c(c4)ncn5C)c(C)c3)c2n1` [Example 26, (E)-N-methyl-N-(4-(4-((3-methyl-4-((1-methyl-1H-benzo[d]imidazol-5-yl)oxy)phenyl)amino)pyrido[3,2-d]pyrimidin-6-yl)but-4-en-1-yl)acrylamide], for which the results for the GI50 (with Ba/F3 HER2 A775insYVMA; in assay [1]) were less than 0.1 µM and 1 to 5 µM, respectively.
The matching figures for `C=CC(=O)N1CCCC(/C=C/c2ccc3ncnc(Nc4ccc(Oc5ccc6c(c5)ncn6C)c(C)c4)c3n2)C1` (stereo not shown) [Example 27, (E)-1-(3-(2-(4-((3-methyl-4-((1-methyl-1H-benzo[d]imidazol-5-yl)oxy)phenyl)amino)pyrido[3,2-d]pyrimidin-6-yl)vinyl)piperidin-1-yl)prop-2-en-1-one]: 0.1 to 1 µM and 1 to 5 µM.
For `C=CC(=O)N1CC(/C=C/c2ccc3ncnc(Nc4ccc(Oc5ccc6c(c5)ncn6C)c(C)c4)c3n2)C1` [Example 28, (E)-1-(3-(2-(4-((3-methyl-4-((1-methyl-1H-benzo[d]imidazol-5-yl)oxy)phenyl)amino)pyrido[3,2-d]pyrimidin-6-yl)vinyl)azetidin-1-yl)prop-2-en-1-one] the same measures were less than 0.1 µM and 1 to 5 µM.
For `C=CC(=O)N1CCC(/C=C/c2ccc3ncnc(Nc4ccc(Oc5ccc6c(c5)ncn6C)c(C)c4)c3n2)C1` (stereo not shown) [Example 29, (E)-1-(3-(2-(4-((3-methyl-4-((1-methyl-1H-benzo[d]imidazol-5-yl)oxy)phenyl)amino)pyrido[3,2-d]pyrimidin-6-yl)vinyl)pyrrolidin-1-yl)prop-2-en-1-one] the same measures were less than 0.1 µM and 1 to 5 µM.
In the case of `C=CC(=O)N(C)C1(/C=C/c2ccc3ncnc(Nc4ccc(Oc5ccc6c(c5)ncn6C)c(C)c4)c3n2)CC1` [Example 30, (E)-N-methyl-N-(1-(2-(4-((3-methyl-4-((1-methyl-1H-benzo[d]imidazol-5-yl)oxy)phenyl)amino)pyrido[3,2-d]pyrimidin-6-yl)vinyl)cyclopropyl)acrylamide], the GI50 (with Ba/F3 HER2 A775insYVMA; in assay [1]) was 0.1 to 1 µM in each case.
Consider `C/C=C/C(=O)N(C)C/C=C/c1ccc2ncnc(Nc3ccc(Oc4ccc5c(c4)ncn5C)c(C)c3)c2n1` [Example 31, (E)-N-methyl-N-((E)-3-(4-((3-methyl-4-((1-methyl-1H-benzo[d]imidazol-5-yl)oxy)phenyl)amino)pyrido[3,2-d]pyrimidin-6-yl)allyl)but-2-enamide], for which the GI50 with Ba/F3 HER2 A775insYVMA was 0.1 to 1 µM; in assay [1], 1 to 5 µM.
With `Cc1cc(Nc2ncnc3ccc(/C=C/CN(C)C(=O)/C=C/CN(C)C)nc23)ccc1Oc1ccc2c(c1)ncn2C` [Example 32, (E)-4-(dimethylamino)-N-methyl-N-((E)-3-(4-((3-methyl-4-((1-methyl-1H-benzo[d]imidazol-5-yl)oxy)phenyl)amino)pyrido[3,2-d]pyrimidin-6-yl)allyl)but-2-enamide], the values for the GI50 (with Ba/F3 HER2 A775insYVMA; in assay [1]) were 0.1 to 1 µM and greater than 5 µM, respectively.
The matching figures for `C=CC(=O)NC/C=C/c1ccc2ncnc(Nc3ccc(Oc4ccc5c(c4)ncn5C)c(C)c3)c2n1` [Example 33, (E)-N-(3-(4-((3-methyl-4-((1-methyl-1H-benzo[d]imidazol-5-yl)oxy)phenyl)amino)pyrido[3,2-d]pyridin-6-yl)allyl)acrylamide]: less than 0.1 µM and 1 to 5 µM.
